Assay results published in patent US20260250641A1, “COMPOSITIONS AND USES THEREOF FOR STABILIZATION OF BLOOD SAMPLE COMPONENTS” (STRECK LLC, priority 2023, published 2026).
Entries after “also recorded” stand apart in the source; their conditions may differ.

Key:
cfDNA [1] = experiment: cfDNA stability: Qubit HS DNA Assay, total plasma cfDNA
Description: (§1) The drawn blood samples were stored at room temperature for up to 7 days. Total cell-free nucleic acids were isolated from day 0 or day 7 blood samples using Qiagen's QIAamp Circulating Nucleic Acid Kit.
(§2) The resultant plasma cfDNA was first studied with Qubit HS DNA Assay (FIG. 5A), which quantifies the concentration of total plasma cfDNA. Without proper stabilization, white blood cells in drawn blood will lyse during storage and release large amounts of genomic DNA fragments into the plasma, leading to elevated total plasma cfDNA. Compared to cfDNA originating from white blood cells, tumor-derived cfDNA is preset at a very low concentration. Tumor-derived cfDNA should not be detectable in healthy donors.

cfRNA [2] = experiment: cfRNA stability: Agilent RNA Pico Kit, Bioanalyzer; conditions: day 7 versus freshly collected blood
Description: (§3) Total cell-free nucleic acids were isolated from day 0 or day 7 blood samples using Qiagen's QIAamp Circulating Nucleic Acid Kit.
The plasma cfRNA was first analyzed with Agilent's RNA Pico Kit on the Agilent Bioanalyzer system (FIG. 6A).

red blood cells = experiment: TAP II capillary blood study: hemolysis (A414); type: cell-based; conditions: venous blood and TAP II capillary blood, up to 3 days room temperature
Description: Blood samples were stored at room temperature for up to 3 days.

RBC = experiment: In vitro hemolysis, absorbance at 414 nm (Nanodrop); type: cell-based; conditions: venous blood, room temperature up to 5 days, N=15
Description: Hemolysis was quantitatively measured by following the absorbance at 414 nm with Nanodrop. An increased A414 indicates releasing of hemoglobin from broken RBC, which is a key event of hemolysis.

cfRNA [3] = experiment: cfRNA stability: Qubit miRNA Assay, total plasma cfRNA; conditions: 7 days ambient storage
Description: as §3
Qubit miRNA Assay was used to quantify the concentration of total plasma cfRNA. If RNA-containing cells, such as reticulocytes and white blood cells, were lysed during storage, then large amounts of RNA fragments would be released into plasma, masking the very low abundant circulating cfRNA while resulting in elevated cfRNA.

β-actin (ACTB) = experiment: cfDNA stability: plasma β-actin (ACTB) by digital droplet PCR; conditions: day 7 blood, ambient storage
Description: as §1, §2

TGF-β1 = experiment: Spray-coated microcollection tubes: plasma TGF-β1 (Ella); type: cell-based; conditions: 3-day room temperature storage, spray-coated microcollection tubes (FIG. 10)
Method: (§4) Blood was collected from healthy donors, each collected into 1×5 mL EDTA vacutainer tubes and virgin (no anticoagulant). Next, venous blood was aliquoted as quickly as possible into the spray-coated microtainers. The EDTA blood was aliquoted into virgin Greiner microtainers as negative controls. The blood with no anticoagulant was aliquoted into microcollection tubes spray coated with one of three formulations noted in Table 2 below, with two tubes per formulation. The sprayed microtainers were then mixed 15-20 times with the blood sample.
(§5) Half of the samples were analyzed at draw time and the remaining half were stored at room temperature for 3 days before analysis. Plasma protein concentration of TGF-β1 was analyzed with Ella (FIG. 10). Plasma β-Actin level was determined by ddPCR (FIG. 11).

platelets [4] = experiment: Tasso+ capillary blood study: plasma MPO and RANTES; type: cell-based; conditions: venous and Tasso+ capillary blood, up to 3 days room temperature
Method: Tasso+ is a single-use device that collects up to 0.5 mL of capillary blood from a donor's upper arm. Tasso+ is compatible with BD Microtainer® Blood Collection Tubes.
Capillary blood samples were collected from 3 donors. […] Blood samples were stored at room temperature for up to 3 days. Three functionality assays were conducted, including measuring hemolysis (FIG. 8A) and testing the plasma level of MPO (FIG. 8B) and RANTES (FIG. 8C).

plasma proteins = experiment: Venous blood, Luminex xMAP Multiplex Immunoassay Panel; type: cell-based; conditions: room temperature storage, 3 to 5 days
Method: After double-spin process, isolated plasma fractions were tested with Luminex xMAP Multiplex Immunoassay Panel.

cfDNA [5] = experiment: cfDNA stability: Agilent cfDNA ScreenTape Assay
Description: as §1
Plasma cfDNA was further analyzed with Agilent cfDNA ScreenTape Assay on Agilent TapeStation (FIGS. 5C & 5D). […] Thus, the percentage of cfDNA between 150-300 bp among total cfDNA (% cfDNA) was used to indicate genomic DNA contamination (FIG. 5D).

β-Actin DNA (ACTB) = experiment: Spray-coated microcollection tubes: plasma β-Actin by ddPCR
Method: as §4, §5

platelets [6] = experiment: Second round screening: % activated platelets (CD62P/CD61 flow cytometry) and plasma TGF-β1; type: cell-based; conditions: inhibitor in Streck B formulation at 3 to 5 dosages; room temperature up to 7 days; data not shown
Method: Preservative formulations were made by adding platelet activation inhibitors to the Streck B formulation at the desired concentrations. Venous blood specimens from 2 donors were then drawn into blood collection tubes (BCTs) prefilled with these formulations. As references, blood specimens were also drawn into EDTA tubes, ACD-A tubes, tubes filed with Streck B formulation, and tubes containing Streck B formulation spiked with and 2 mM tetracaine. Blood specimens were stored at room temperature for up to 7 days.
The percentages of activated platelets (CD62P positive) among total platelets (CD61 positive) in drawn whole blood were measured by flow cytometry. The percentage of activated platelets was tested with Day 0 and Day 3 blood specimens. The plasma levels of TGF-β1 in Day 0, Day 1, Day 3, and Day 7 old blood specimens were measured with immunoassay.

platelets [7] = experiment: First round screening of platelet activation inhibitors: plasma TGF-β1 by Ella immunoassay; type: cell-based; conditions: inhibitor added to Streck B formulation; venous blood at room temperature; data not shown
Method: Blood specimens drawn from 3 donors were stored at room temperature for […]. Activated platelet secret granule contents, such as growth factors, chemokines, and cytokines, into plasma. Elevated plasma concentration of TGF-β1 indicates platelet activation and granule release. Plasma TGF-β1 level was measured with immunoassay using Ella Automated Immunoassay System. Freshly drawn blood (day 0), blood stored for 1 day (Day 1), 3 days (Day 3), and 7 days (Day 7) were tested.
The tested formulations are compared with EDTA and ACD-A for their ability to prevent granule release from platelets. Streck B formulation spiked with 2 mM tetracaine was also used as a reference.

[8] = system: white blood cells, red blood cells, and platelets; experiment: Third round screening: plasma MPO, ferritin and RANTES as blood cell damage indicators; type: cell-based; conditions: inhibitor in Streck B formulation; 7-day room temperature storage; data not shown
Method: The effects of these seven inhibitors on white blood cells, red blood cells, and platelets were evaluated during the third round of screening. […] Therefore, plasma levels of myeloperoxidase (MPO), ferritin, and RANTES were measured with immunoassay as damage indicators of white blood cells, red blood cells, and platelets, respectively. Preservative formulations were made by adding platelet activation inhibitors to Streck B formulation at concentrations determined through the second round of screening. Venous blood was collected from 2 donors for all preservative formulations. EDTA, ACD-A, Streck B formulation and Streck B formulation spiked with 2 mM Tetracaine were used as references. Draw whole blood samples were stored at room temperature for up to 7 days.

platelets [9] = conditions: 2 mM mexiletine or 1 mM verapamil in Streck B formulation; tubes stored 2-50° C. up to 8 weeks; data not shown
Description: Freshly made tubes, 2 weeks old tubes, 4 weeks old tubes, and 8 weeks old tubes were then used to collect venous blood from 2 self-proclaimed healthy donors. Blood specimens were stored at room temperature for up to 3 days. The percentage of platelet activation and plasma level of TGF-31 to test the ability of the aged formulation to prevent platelets activation at collection time and during room temperature storage.

| SMILES | ability to reduce platelet activation in second round screening (platelets [6]) | outcome of first round screening (maintaining plasma TGF-β1 comparable to Streck B formulation with tetracaine) (platelets [7]) | adverse effects on white blood cells, red blood cells and platelet [8] | further results |
| --- | --- | --- | --- | --- |
| O=C(O)CN(CCN(CC(=O)O)CC(=O)O)CC(=O)O [EDTA, ethylene diamine tetra acetic acid] |  |  |  | total plasma cfDNA concentration (cfDNA [1]; day 0 blood): low concentrations of cfDNA; total plasma cfDNA concentration (cfDNA [1]; day 7 blood, room temperature): elevated total cfDNA; plasma cfRNA electropherogram (concentration and population) (cfRNA [2]): greatly changed; hemolysis (red blood cells): induces hemolysis; in vitro hemolysis (A414) (RBC): in vitro hemolysis since day 3; also recorded: significant hemolysis; increase of total cfRNA after storage (cfRNA [3]): ~5 fold; plasma level of β-actin (ACTB) DNA (β-actin (ACTB)): high amount of ACTB; change of plasma TGF-β1 level after storage (TGF-β1): drastically increased; granule release from activated platelets (plasma MPO and RANTES) (platelets [4]): increased; plasma concentrations of representative proteins and cytokines (FIG. 2: MPO, TGF-β1, CCL5/RANTES, MMP-9, VEGF, Granzyme B, TNFα, IL-8) (plasma proteins): elevated levels; also recorded: marked increase; % cfDNA (cfDNA between 150-300 bp among total cfDNA) (cfDNA [5]; Day 0 blood): 75%; plasma cfDNA electropherogram plots (cfDNA [5]; Day 7 blood): prominent peak of apoptotic-ladder DNA; % cfDNA (cfDNA between 150-300 bp among total cfDNA) (cfDNA [5]; Day 7 blood, room temperature): 30%; level of β-Actin in 3-day old plasma versus draw time plasma (β-Actin DNA (ACTB); 3 days room temperature (FIG. 11)): more than 20 fold; plasma β-Actin DNA level after storage (genomic DNA contamination) (β-Actin DNA (ACTB); 3 days room temperature, spray-coated tubes (FIG. 11)): led to genomic DNA (β-Actin) contamination |
| CCCCN1CCCCC1C(=O)Nc1c(C)cccc1C (stereo not drawn) [bupivacaine] | behaved at least comparable to each other | graduated from the first round of the screening | little adverse effects |  |
| COc1ccc([C@@H]2Sc3ccccc3N(CCN(C)C)C(=O)[C@@H]2OC(C)=O)cc1 [diltiazem] | behaved at least comparable to each other | graduated from the first round of the screening | little adverse effects |  |
| CCN(CC)CC(=O)Nc1c(C)cccc1C [lidocaine] | behaved at least comparable to each other |  | little adverse effects |  |
| Cc1cccc(C)c1NC(=O)C1CCCCN1C (stereo not drawn) [mepivacaine] | behaved at least comparable to each other | graduated from the first round of the screening | little adverse effects |  |
| Cc1cccc(C)c1OCC(C)N (stereo not drawn) [mexiletine] | behaved at least comparable to each other | graduated from the first round of the screening | little adverse effects | functional stability of aged formulations compared to other tested ion inhibitors (platelets [9]): better functional stability |
| C=C[C@H]1C[N@@]2CC[C@H]1C[C@@H]2[C@@H](O)c1ccnc2ccc(OC)cc12 [quinidine] | behaved at least comparable to each other | graduated from the first round of the screening | little adverse effects |  |
| COc1ccc(CCN(C)CCCC(C#N)(c2ccc(OC)c(OC)c2)C(C)C)cc1OC (stereo not drawn) [verapamil] | behaved at least comparable to each other | graduated from the first round of the screening | little adverse effects |  |
